Assay results: patent US11912663B2, “Multi-targeted tyrosine kinase inhibitors and their pharmaceutical uses” (Shanghai AB PharmaTech Ltd., priority 2021, dated 2024)

Key:
[1] = test system: pancreatic cancer cell line (BXPC3); experiment: tumor cell proliferation inhibition (CTG), pancreatic cancer cell line; type: cell-based; conditions: Homo sapiens, BXPC-3, 72 hours
[2] = test system: lung cancer cell line (A549); experiment: tumor cell proliferation inhibition (CTG), lung cancer cell line; type: cell-based; conditions: Homo sapiens, 72 hours
[3] = test system: kidney cancer cell line (Caki-1); experiment: tumor cell proliferation inhibition (CTG), kidney cancer cell line; type: cell-based; conditions: Homo sapiens, 72 hours, read-out: Caki-1 (renal cancer) IC50
[4] = test system: hepatocellular carcinoma cell line (Hep3B 2.1-7); experiment: tumor cell proliferation inhibition (CTG), hepatocellular carcinoma cell line; type: cell-based; conditions: Homo sapiens, 72 hours
[5] = test system: gastric cancer cell line (SNU16); experiment: tumor cell proliferation inhibition (CTG), gastric cancer cell line; type: cell-based; conditions: Homo sapiens, SNU-16, 72 hours, read-out: SUN16 IC50
[6] = test system: cervical cancer cell lines (Hela); experiment: tumor cell proliferation inhibition (CTG), cervical cancer cell line; type: cell-based; conditions: Homo sapiens, 72 hours
[7] = test system: leukemia cell line (K562); experiment: tumor cell proliferation inhibition (CTG), leukemia cell line; type: cell-based; conditions: Homo sapiens, 72 hours
[8] = test system: prostatic cancer (PC-3); experiment: tumor cell proliferation inhibition (CTG), PC-3; type: cell-based; conditions: 72 hours
[9] = target: VEGFR1 (FLT1) (Homo sapiens (Human), UniProt P17948); experiment: kinase inhibition, Mobility-Shift Assay; type: biochemical; conditions: 278 μM ATP
[10] = target: VEGFR2 (KDR) (Homo sapiens (Human), UniProt P35968); experiment: kinase inhibition, Mobility-Shift Assay; type: biochemical; conditions: VEGFR2, 92 μM ATP
[11] = target: VEGFR3 (FLT4) (Homo sapiens (Human), UniProt P35916); experiment: kinase inhibition, Mobility-Shift Assay; type: biochemical; conditions: 84 μM ATP
[12] = target: FGFR2 (Homo sapiens (Human), UniProt P21802); experiment: kinase inhibition, Mobility-Shift Assay; type: biochemical; conditions: 1.9 μM ATP
[13] = target: RET (Homo sapiens (Human), UniProt P07949); experiment: kinase inhibition, Mobility-Shift Assay; type: biochemical; conditions: 23 μM ATP
[14] = target: hERG potassium channels (Homo sapiens (Human), UniProt Q12809); experiment: in vitro inhibitory effect of hERG, whole-cell patch clamp; type: cell-based; conditions: whole-cell recording, room temperature
[15] = MTD toxicity test in rats; type: in vivo; conditions: 150 mg/kg; for MTD toxicity test, clinical outcome: rat, in vivo; for autopsy results of organs: rats, QD, 14 days, heart, liver, lungs, kidneys, stomach, intestines and other organs
[16] = test system: BXPC3, SNU16, Hep3B 2.1-7 subcutaneous tumors; experiment: tumor suppression in nude mice with subcutaneously transplanted tumors; type: in vivo; conditions: BXPC3, SNU16, Hep3B 2.1-7 transplants, within 3-4 weeks
Source text: These preferred compounds (e.g., IIIb-08, IIIb-09, IIIb-45, IIIb-50, IIIb-55, IIIb-56, IIIb-57, IIIb-58, IIIb-60, IIIb-61, IIIb-65) are currently being used to […] in nude mice subcutaneously transplanted with pancreatic cancer cell line (BXPC3), gastric cancer cell line (SNU16), liver cancer cell line (Hep3B 2.1-7) and other tumor suppressive effects have been observed in vivo, the tumor suppression rate of subcutaneous tumors in nude mice could reach 80-110% within 3-4 weeks. […] Therefore, the preferred compounds “IIIb-08, IIIb-09, IIIb-45, IIIb-50, IIIb-55, IIIb-56, IIIb-57, IIIb-58, IIIb-60, IIIb-61, IIIb-65” designed and synthesized by the present invention not only have better inhibitory activity, but also have better safety and drug-forming properties, which are valuable for further preclinical studies such as pharmacotoxicology and clinical trials.

Chain of VEGFR2 (KDR) (P35968 20-1356): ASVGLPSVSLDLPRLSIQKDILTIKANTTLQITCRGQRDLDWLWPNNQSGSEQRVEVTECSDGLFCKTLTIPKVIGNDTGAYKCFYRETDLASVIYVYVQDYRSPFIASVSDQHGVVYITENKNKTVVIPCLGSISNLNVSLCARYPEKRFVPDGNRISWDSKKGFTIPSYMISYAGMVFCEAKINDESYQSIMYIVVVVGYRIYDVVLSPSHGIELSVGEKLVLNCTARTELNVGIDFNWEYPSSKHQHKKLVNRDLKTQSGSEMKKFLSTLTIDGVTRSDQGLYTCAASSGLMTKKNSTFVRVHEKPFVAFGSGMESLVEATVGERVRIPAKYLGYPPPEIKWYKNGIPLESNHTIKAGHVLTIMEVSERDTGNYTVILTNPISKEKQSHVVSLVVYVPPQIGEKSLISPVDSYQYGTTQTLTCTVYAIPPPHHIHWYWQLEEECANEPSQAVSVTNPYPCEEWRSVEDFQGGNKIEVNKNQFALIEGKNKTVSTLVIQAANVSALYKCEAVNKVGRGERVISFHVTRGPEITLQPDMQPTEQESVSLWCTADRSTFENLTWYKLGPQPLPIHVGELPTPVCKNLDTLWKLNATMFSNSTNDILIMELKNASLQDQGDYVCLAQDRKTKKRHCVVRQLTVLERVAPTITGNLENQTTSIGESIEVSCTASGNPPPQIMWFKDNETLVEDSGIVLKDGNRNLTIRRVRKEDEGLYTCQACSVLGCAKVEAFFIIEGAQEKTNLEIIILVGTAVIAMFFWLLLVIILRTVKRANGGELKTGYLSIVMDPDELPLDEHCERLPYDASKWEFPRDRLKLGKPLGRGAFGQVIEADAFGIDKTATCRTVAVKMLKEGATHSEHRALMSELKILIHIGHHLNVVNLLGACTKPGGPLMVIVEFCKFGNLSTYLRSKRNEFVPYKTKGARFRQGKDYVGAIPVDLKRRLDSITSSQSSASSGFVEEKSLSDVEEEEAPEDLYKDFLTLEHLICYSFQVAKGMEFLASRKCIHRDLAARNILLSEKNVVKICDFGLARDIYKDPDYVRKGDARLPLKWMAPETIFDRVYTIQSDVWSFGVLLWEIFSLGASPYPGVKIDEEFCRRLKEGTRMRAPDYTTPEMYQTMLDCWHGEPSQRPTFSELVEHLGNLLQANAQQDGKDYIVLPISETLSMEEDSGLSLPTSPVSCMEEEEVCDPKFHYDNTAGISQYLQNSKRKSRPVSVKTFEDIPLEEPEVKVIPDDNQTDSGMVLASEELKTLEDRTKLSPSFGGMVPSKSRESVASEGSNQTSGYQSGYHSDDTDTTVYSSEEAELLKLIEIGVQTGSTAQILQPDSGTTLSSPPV
Chain of VEGFR1 (FLT1) (P17948 27-1338): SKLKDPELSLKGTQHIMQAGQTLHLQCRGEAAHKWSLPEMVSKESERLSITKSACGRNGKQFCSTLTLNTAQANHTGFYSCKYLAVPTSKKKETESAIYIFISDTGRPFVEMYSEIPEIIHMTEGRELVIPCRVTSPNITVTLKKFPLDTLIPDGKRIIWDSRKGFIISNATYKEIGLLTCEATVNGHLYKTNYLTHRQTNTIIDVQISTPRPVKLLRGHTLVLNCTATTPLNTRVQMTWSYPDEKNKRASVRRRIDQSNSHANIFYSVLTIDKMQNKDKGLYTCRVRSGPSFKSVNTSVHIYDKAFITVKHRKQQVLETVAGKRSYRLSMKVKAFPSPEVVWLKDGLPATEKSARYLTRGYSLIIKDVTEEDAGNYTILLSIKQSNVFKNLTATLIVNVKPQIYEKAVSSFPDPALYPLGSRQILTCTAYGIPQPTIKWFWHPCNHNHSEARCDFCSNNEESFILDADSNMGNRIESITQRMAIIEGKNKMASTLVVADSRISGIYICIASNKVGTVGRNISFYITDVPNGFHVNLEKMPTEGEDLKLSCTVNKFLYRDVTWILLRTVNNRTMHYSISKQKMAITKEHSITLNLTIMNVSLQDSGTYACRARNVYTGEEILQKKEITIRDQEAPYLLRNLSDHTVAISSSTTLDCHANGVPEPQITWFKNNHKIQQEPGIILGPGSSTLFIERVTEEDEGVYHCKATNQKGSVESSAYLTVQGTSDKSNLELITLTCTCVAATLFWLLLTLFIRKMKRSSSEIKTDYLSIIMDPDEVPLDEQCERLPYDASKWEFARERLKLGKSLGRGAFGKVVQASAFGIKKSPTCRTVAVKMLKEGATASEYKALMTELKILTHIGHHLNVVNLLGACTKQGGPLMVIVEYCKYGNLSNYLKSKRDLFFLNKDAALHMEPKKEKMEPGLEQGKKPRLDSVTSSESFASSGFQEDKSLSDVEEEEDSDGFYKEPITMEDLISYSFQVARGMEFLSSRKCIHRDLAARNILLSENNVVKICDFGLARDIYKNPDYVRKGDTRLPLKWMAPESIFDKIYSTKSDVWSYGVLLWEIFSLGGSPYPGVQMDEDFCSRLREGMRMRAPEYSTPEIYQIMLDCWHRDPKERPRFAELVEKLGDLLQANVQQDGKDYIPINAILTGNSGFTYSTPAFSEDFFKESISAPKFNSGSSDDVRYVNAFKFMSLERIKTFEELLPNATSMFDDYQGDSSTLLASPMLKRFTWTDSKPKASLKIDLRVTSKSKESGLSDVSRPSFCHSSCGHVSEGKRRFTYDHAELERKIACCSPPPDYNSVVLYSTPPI
Chain of hERG potassium channels (Q12809 whole entry): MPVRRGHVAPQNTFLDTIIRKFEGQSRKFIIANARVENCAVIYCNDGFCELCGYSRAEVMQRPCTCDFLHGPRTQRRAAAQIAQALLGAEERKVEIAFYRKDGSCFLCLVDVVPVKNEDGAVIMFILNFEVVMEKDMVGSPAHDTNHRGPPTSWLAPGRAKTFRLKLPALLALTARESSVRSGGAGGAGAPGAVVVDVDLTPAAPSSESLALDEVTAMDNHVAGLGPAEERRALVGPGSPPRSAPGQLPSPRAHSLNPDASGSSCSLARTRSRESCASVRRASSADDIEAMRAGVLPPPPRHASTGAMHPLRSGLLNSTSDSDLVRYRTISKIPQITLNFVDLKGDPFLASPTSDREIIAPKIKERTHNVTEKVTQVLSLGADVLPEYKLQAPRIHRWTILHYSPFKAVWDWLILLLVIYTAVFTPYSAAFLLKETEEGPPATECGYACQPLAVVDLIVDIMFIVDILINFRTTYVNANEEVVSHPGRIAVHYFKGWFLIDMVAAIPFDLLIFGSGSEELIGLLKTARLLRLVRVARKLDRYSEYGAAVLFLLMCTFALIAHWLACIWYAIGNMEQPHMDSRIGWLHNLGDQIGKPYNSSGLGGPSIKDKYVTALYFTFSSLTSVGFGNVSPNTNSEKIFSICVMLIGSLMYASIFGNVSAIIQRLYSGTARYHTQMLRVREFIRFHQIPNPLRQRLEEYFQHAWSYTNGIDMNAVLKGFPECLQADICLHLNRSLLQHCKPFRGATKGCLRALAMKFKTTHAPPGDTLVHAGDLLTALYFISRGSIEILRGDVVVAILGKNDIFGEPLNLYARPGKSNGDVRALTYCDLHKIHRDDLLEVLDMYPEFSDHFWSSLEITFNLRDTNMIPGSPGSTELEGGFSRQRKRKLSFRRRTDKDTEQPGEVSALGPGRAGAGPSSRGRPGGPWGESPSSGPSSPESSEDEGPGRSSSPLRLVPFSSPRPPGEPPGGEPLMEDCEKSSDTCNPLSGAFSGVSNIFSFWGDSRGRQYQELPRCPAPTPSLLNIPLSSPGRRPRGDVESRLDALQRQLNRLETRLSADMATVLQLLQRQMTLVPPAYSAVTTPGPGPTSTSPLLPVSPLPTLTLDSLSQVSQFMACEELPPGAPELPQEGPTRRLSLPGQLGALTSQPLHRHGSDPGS
Chain of RET (P07949 29-1114): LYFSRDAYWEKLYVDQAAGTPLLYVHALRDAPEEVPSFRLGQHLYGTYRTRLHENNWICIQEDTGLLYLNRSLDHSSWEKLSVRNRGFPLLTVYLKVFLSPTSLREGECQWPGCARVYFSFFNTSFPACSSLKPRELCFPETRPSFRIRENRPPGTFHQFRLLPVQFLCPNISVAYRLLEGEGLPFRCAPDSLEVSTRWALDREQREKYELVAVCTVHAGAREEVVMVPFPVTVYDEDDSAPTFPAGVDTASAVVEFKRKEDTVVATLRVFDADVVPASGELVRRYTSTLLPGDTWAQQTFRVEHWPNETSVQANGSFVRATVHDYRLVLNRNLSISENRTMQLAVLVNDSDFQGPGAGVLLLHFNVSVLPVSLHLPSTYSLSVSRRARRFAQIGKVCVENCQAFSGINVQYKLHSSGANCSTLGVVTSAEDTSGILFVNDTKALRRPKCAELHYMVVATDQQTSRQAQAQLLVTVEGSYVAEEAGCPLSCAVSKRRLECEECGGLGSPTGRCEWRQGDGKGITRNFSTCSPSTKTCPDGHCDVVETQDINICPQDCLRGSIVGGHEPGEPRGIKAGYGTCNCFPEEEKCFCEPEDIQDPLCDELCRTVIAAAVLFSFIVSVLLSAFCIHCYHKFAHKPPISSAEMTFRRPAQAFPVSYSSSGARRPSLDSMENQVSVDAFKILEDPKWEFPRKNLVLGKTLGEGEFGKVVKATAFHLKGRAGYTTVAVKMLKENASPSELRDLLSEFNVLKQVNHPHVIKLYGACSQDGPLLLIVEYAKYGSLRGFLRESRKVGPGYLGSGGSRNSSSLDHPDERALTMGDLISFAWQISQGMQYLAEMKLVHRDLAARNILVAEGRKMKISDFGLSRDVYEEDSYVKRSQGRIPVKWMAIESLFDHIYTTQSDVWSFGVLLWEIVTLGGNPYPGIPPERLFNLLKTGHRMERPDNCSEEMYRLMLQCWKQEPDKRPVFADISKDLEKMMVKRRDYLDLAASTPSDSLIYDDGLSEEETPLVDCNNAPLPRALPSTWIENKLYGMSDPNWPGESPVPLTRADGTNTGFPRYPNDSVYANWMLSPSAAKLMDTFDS

| SMILES | IC50 [1] [nM] | IC50 [2] [nM] | IC50 [3] [nM] | IC50 [4] [nM] | IC50 [5] [nM] | IC50 [6] [nM] | IC50 [7] [nM] | IC50 [8] [nM] | IC50 [9] [nM] | IC50 [10] [nM] | IC50 [11] [nM] | IC50 [12] [nM] | IC50 [13] [nM] | IC50 [14] [nM] | MTD toxicity test, clinical outcome [15] | autopsy results of organs [15] | tumor suppression rate of subcutaneous tumors [16] |
| --- | --- | --- | --- | --- | --- | --- | --- | --- | --- | --- | --- | --- | --- | --- | --- | --- | --- |
| COc1cc2nccc(Oc3c(F)cc(NC(=O)NC4CC4)c(Cl)c3F)c2cc1C(=O)NCC(F)F [IIIb-08] | < 5000 | < 2500 | < 2500 | < 2500 | < 5000 | < 5000 | < 5000 | 5000 to 10000 | < 5 | < 5 | < 5 | < 50 | < 5 | > 30000 | no abnormalities such as death | did not reveal any abnormal changes | 80-110% |
| COc1cc2nccc(Oc3c(F)cc(NC(=O)NC4CC4)c(Cl)c3F)c2cc1C(=O)NCC(F)(F)F [IIIb-09] | < 5000 | < 2500 | < 2500 | < 2500 | < 5000 | < 5000 | < 5000 | > 10000 | 5 to 10 | < 5 | < 5 | 50 to 100 | 5 to 10 | > 30000 | no abnormalities such as death | did not reveal any abnormal changes | 80-110% |
| COc1cc2nccc(Oc3c(F)cc(NC(=O)NC4CC4)c(Cl)c3F)c2cc1C(=O)NCC#N [IIIb-45] | < 5000 | < 2500 | < 2500 | < 2500 | < 5000 | < 5000 | < 5000 | 5000 to 10000 | < 5 | < 5 | < 5 | < 50 | < 5 | > 30000 | no abnormalities such as death | did not reveal any abnormal changes | 80-110% |
| COc1cc2nccc(Oc3c(F)cc(NC(=O)NC4CC4)c(Cl)c3F)c2cc1C(=O)NCCC#N [IIIb-50] | < 5000 | < 2500 | < 2500 | < 2500 | < 5000 | < 5000 | < 5000 | 5000 to 10000 | < 5 | < 5 | < 5 | < 50 | < 5 | > 30000 | no abnormalities such as death | did not reveal any abnormal changes | 80-110% |
| NC(=O)c1cc2c(Oc3c(F)cc(NC(=O)NC4CC4)c(Cl)c3F)ccnc2cc1OCCF [IIIb-55] | < 5000 | < 2500 | < 2500 | < 2500 | < 5000 | < 5000 | < 5000 | 5000 to 10000 | < 5 | < 5 | < 5 | < 50 | 5 to 10 | > 30000 | no abnormalities such as death | did not reveal any abnormal changes | 80-110% |
| NC(=O)c1cc2c(Oc3c(F)cc(NC(=O)NC4CC4)c(Cl)c3F)ccnc2cc1OCC(F)F [IIIb-56] | < 5000 | < 2500 | < 2500 | < 2500 | < 5000 | < 5000 | < 5000 | 5000 to 10000 | < 5 | < 5 | < 5 | < 50 | < 5 | > 30000 | no abnormalities such as death | did not reveal any abnormal changes | 80-110% |
| NC(=O)c1cc2c(Oc3c(F)cc(NC(=O)NC4CC4)c(Cl)c3F)ccnc2cc1OCC(F)(F)F [IIIb-57] | < 5000 | < 2500 | < 2500 | < 2500 | < 5000 | < 5000 | < 5000 | 5000 to 10000 | < 5 | < 5 | < 5 | < 50 | < 5 | > 30000 | no abnormalities such as death | did not reveal any abnormal changes | 80-110% |
| N#CCOc1cc2nccc(Oc3c(F)cc(NC(=O)NC4CC4)c(Cl)c3F)c2cc1C(N)=O [IIIb-58] | < 5000 | < 2500 | < 2500 | < 2500 | < 5000 | < 5000 | < 5000 | 5000 to 10000 | < 5 | < 5 | < 5 | < 50 | < 5 | > 30000 | no abnormalities such as death | did not reveal any abnormal changes | 80-110% |
| NC(=O)c1cc2c(Oc3c(F)cc(NC(=O)NC4CC4)c(Cl)c3F)ccnc2cc1OCCO [IIIb-60] | < 5000 | < 2500 | < 2500 | < 2500 | < 5000 | < 5000 | < 5000 | 5000 to 10000 | < 5 | < 5 | < 5 | < 50 | < 5 | > 30000 | no abnormalities such as death | did not reveal any abnormal changes | 80-110% |
| NC(=O)c1cc2c(Oc3c(F)cc(NC(=O)NC4CC4)c(Cl)c3F)ccnc2cc1OCC1(N)CC1 [IIIb-61] | < 5000 | < 2500 | < 2500 | < 2500 | < 5000 | < 5000 | < 5000 | 5000 to 10000 | < 5 | < 5 | < 5 | < 50 | < 5 | > 30000 | no abnormalities such as death | did not reveal any abnormal changes | 80-110% |
| N#CCCOc1cc2nccc(Oc3c(F)cc(NC(=O)NC4CC4)c(Cl)c3F)c2cc1C(N)=O [IIIb-65] | < 5000 | < 2500 | < 2500 | < 2500 | < 5000 | < 5000 | < 5000 | 5000 to 10000 | < 5 | < 5 | < 5 | < 50 | < 5 | > 30000 | no abnormalities such as death | did not reveal any abnormal changes | 80-110% |
